# Test results: patent publication US20070122414A1, “Surface marker-directed cancer therapeutics” (Aurelium BioPharma Inc., priority 2005, published 2007)
# Tested on: SKOV3 ovarian tumor cells
# Assay: SKOV3 tumor xenograft in nude mice, relative tumor volume (Example 1)
# Assay type: in vivo
# Conditions: SKOV3 tumors in nude mice; intravenous
# Protocol: Starting on the first day of treatment, tumor growth was measured by […], and the volume of the xenograft was monitored every 4 days. […] Mice were then treated with vimentin-directed therapeutics. […] Taxol was obtained commercially from Sigma Corp. (St. Louis, Mo.).
# All treatments were introduced by intravenous administration. Mice were then sacrificed and tumors excised for relative volume determinations.
smiles,measurement,value
CC(=O)O[C@H]1C(=O)[C@@]2(C)[C@H]([C@H](OC(=O)c3ccccc3)[C@]3(O)C[C@H](OC(=O)[C@H](O)[C@@H](NC(=O)c4ccccc4)c4ccccc4)C(C)=C1C3(C)C)[C@]1(OC(C)=O)CO[C@@H]1C[C@@H]2O [taxol],tumor size/volume relative to other treatment groups,"smaller than tumors in mice treated with vehicle or isotypic control, but not as small as the tumors isolated from mice treated with anti-vimentin antibodies and taxol together"
